Results: patent publication US11639372B1, “Zinc-charged peptides for the treatment of cancer and alzheimer's disease” (priority 2021, dated 2023)
“And” between values parts separate entries of the source, which are not always exact repeats. Equal entries are not always repeated. Ends that are not written are not given here.

Experiments:
[1] = test system: cancer-associated fibroblasts; experiment: cellular ATP level in cancer-associated fibroblasts; assay type: cell-based; conditions: 2 μM, 2 hours
Procedure: FIGS. 12a-b display a cell culture study showing the ATP levels and hexokinase II activities of CAFs that were cultured with 2 μM zinc-charged 4H3 for 2 hours. […] These findings confirmed that the zinc-charged peptides caused ATP depletion and hexokinase II inhibition in CAFs.

respiratory chain III [2] = experiment: respiratory chain III activity, mitochondria of normal colon cells; assay type: biochemical; conditions: normal CCD8Co colon cells; 5 μM, 2 hours (FIG. 15d)
Procedure: (§1) For the testing depicted in FIGS. 15a-15d, […] zinc-charged 4H3 was utilized and compared to a control. In this test, mitochondria was isolated from the cell line, and complex I and III activity was tested using a Cayman Mitocheck Complex I & III Activity Kit. […] However, the zinc-charged 4H3 increased the activity of respiratory chain I by 21% but inhibited respiratory chain III by 42% in normal CCD8Co colon cells.

respiratory chain III [3] = experiment: respiratory chain III activity, mitochondria isolated from HT-29 cells; assay type: biochemical; conditions: HT-29 colon cancer cells; 5 μM, 2 hours (FIG. 15b)
Procedure: as §1

[4] = pharmacokinetic study, serum half-life; assay type: in vivo
[5] = test system: human pancreatic cancer Bx-PC3-G mouse orthotopic model; experiment: orthotopic pancreatic cancer model in mice; assay type: in vivo; conditions: oral, 21-day period
Procedure: In this test, two doses of zinc-charged 4H3 and a control of only the vehicle were orally administered to mice with orthotopic pancreatic cancer. The zinc-charged 4H3 was administered in a “low dose” of 0.5 mg per mouse and a “high dose” of 1.0 mg per mouse.

glutaminase = glutaminase activity in HT-29 cell lysate; assay type: cell-based; conditions: HT-29, 2 μM, 30-90 minutes
Source text: FIGS. 16a-b depict the zinc-charged peptides inhibiting glutaminase activity in HT-29 cancer cells. Glutaminase is another important enzyme responsible for the synthesis of ATP in mitochondria. […] The inhibition of the enzyme glutaminase, along with the inhibition of respiratory chains in cancer cells explain the depletion of ATP in cancer cells shown in FIG. 5.

respiratory chain I [6] = experiment: respiratory chain I activity, mitochondria isolated from HT-29 cells; assay type: biochemical; conditions: HT-29 colon cancer cells; 5 μM, 2 hours (FIG. 15a)
Procedure: as §1

Tau protein = experiment: brain Tau protein in mice (ELISA); assay type: in vivo; conditions: for decrease in brain Tau protein: 1 mg/mouse, 5 days, oral
Procedure: (§2) FIGS. 11a-d provide the graphical representations of these observations. FIG. 11a depicts the level of brain ATP in mice that were orally administered zinc-charged 4H3 compared to mice who were given the control. […] FIG. 11b depicts the level of brain Tau protein ATP in mice that were orally administered zinc-charged 4H3 compared to mice who were given the control. In this test, a 2.7 μg protein load was utilized. […] FIG. 11c depicts a retest of FIG. 11b, but with a lower protein load utilized instead. […] Lastly, FIG. 11d depicts the brain P38 MAPK levels in mice that were orally administered zinc-charged 4H3 compared to mice who were given the control. In this test, the mice given the zinc-charged 4H3 saw their brain P38 MAPK levels decrease by 61%.

HT-29 cancer cells = experiment: tissue distribution: mouse tissue homogenates incubated with HT-29 cells, percentage of cells under apoptosis; assay type: cell-based; conditions: mice, five days administration
Procedure: These observations were confirmed by studying the tissue distribution of the zinc-charged 4H3 in mice after five days administration, as shown in FIG. 3. For these tests, tissue homogenates were taken from the mice five days after receiving the zinc-charged 4H3, then prepared and incubated with HT-29 cancer cells for various times, followed by the determination of the percentage of cell under apoptosis.

HT-29 colon cancer cells = experiment: apoptotic effect on HT-29 cells of saliva from a human volunteer after oral zinc-charged 4H3; assay type: cell-based; conditions: for time at which saliva-induced apoptotic activity peaked: human volunteer
Procedure: It has been shown that the zinc-charged peptide induces apoptosis in various cancer lines. FIGS. 1a, 1b, and 2 show this effect of the zinc-charged peptide on the HT-29 cancer cell line after the zinc-charged peptide was given to a human volunteer. Specifically, 200 mg of zinc-charged 4H3 was orally given to the volunteer in a liquid form. The peptide mixture was an undialyzed sample, such that the zinc-charged 4H3 in the liquid had not yet been separated from the saturated EDTA and free zinc.
Saliva samples were then collected from the volunteer at 4-, 6-, 8-, 9-, 12- and 17-hours post-ingestion of the zinc-charged 4H3. The saliva samples were then incubated with HT-29 cancer cells for either 14-hours or 24-hours to observe the apoptotic effect. FIG. 1a depicts the percentage of cell shrinkage and death of HT-29 colon cancer cells after incubation for 14- and 24-hours with the human saliva samples containing the zinc-charged 4H3 noted above. As shown, the saliva sample collected 4-hours post-ingestion has little effect on the HT-29 cancer cells. […] The saliva-induced apoptotic activity thus peaked at 9-hours post-ingestion.
FIGS. 1B-f depicts microscopic slides of the HT-29 cancer cells after being incubated for […] with specific saliva samples. […] FIG. 1d depicts the saliva sample taken from the volunteer 4 hours after the zinc-charged peptide was ingested. FIGS. 1e and 1f depict saliva samples collected from the volunteer after 10-hour ingestion.
FIG. 2 depicts a dry, solid sample of the zinc-charged 4H3 that was administered to a human volunteer. Specifically, 150 mg of zinc-charged 4H3 was orally given to the volunteer in a dry solid form. This sample was dialyzed, dried down, and had arginine added as an absorption enhancer such that the dried powder included only the zinc-charged 4H3 and arginine. As with the test shown in FIG. 1a, the saliva samples were taken from the human subject 0-, 3-, 6-, 9-, 12-, 15-, 18-, 21-, and 24-hours post-ingestion. The saliva samples were then incubated with HT-29 cancer cells, and their apoptotic activity recorded after 6-, 10-, 14-, and 24-hours.

P38 MAPK = experiment: brain P38 MAPK level in mice; assay type: in vivo; conditions: 1 mg/day for 5 days, oral
Procedure: as §2

respiratory chain I [7] = experiment: respiratory chain I activity, mitochondria of normal colon cells; assay type: biochemical; conditions: normal CCD8Co colon cells; 5 μM, 2 hours (FIG. 15c)
Procedure: as §1

[8] = brain ATP level in mice fed zinc-charged 4H3; assay type: in vivo; conditions: 1 mg/day for 5 days, oral
Procedure: as §2

**Q.** Which results are given for EYGLFQISNKK [zinc-charged 4H3]?
**A.** reduction of ATP levels in CAFs [1]: 95.6%; inhibition of respiratory chain III (respiratory chain III [2]): 42%; inhibition of respiratory chain III (respiratory chain III [3]): 71.2%; half-life [4]: 8 h; reduction of mean tumor size ([5]; high dose 1.0 mg per mouse): 38.0%; reduction of mean tumor size ([5]; low dose 0.5 mg per mouse): 28.1%; amount of glutamate and alpha-ketoglutarate (glutaminase): lower amount; glutaminase activity in the cell lysate (glutaminase): significantly lower glutaminase activity; inhibition of respiratory chain I (respiratory chain I [6]): 70.9%; reduction of Tau protein in the brain (Tau protein; 1 mg/day for 5 days, both protein loads): 22.4-27.5%; decrease in brain Tau protein (Tau protein; 0.55 μg protein load): 22.4%; decrease in brain Tau protein (Tau protein; 2.7 μg protein load): 27.5%; apoptosis activity of tissue homogenate (HT-29 cancer cells; colon): did not display any apoptosis activity; apoptosis activity of tissue homogenate (HT-29 cancer cells; jaw): did not display any apoptosis activity; apoptosis activity of tissue homogenate (HT-29 cancer cells; lung): did not display any apoptosis activity; apoptosis activity of tissue homogenate (HT-29 cancer cells; pancreas): contained apoptosis activity; time at which saliva-induced apoptotic activity peaked (HT-29 colon cancer cells; 150 mg oral, dry solid form with arginine): 12 h; time at which saliva-induced apoptotic activity peaked (HT-29 colon cancer cells; 200 mg oral, liquid form, undialyzed): 9 hours post-ingestion; effect of saliva sample on HT-29 cancer cells (HT-29 colon cancer cells; saliva 4 hours after ingestion, 36 hours incubation): very little effect; effect of saliva sample on HT-29 cancer cells (HT-29 colon cancer cells; saliva after 10-hour ingestion, 36 hours incubation): clear apoptosis activity; effect of saliva sample on HT-29 cancer cells (HT-29 colon cancer cells; saliva collected 4-hours post-ingestion, 14- and 24-hour incubation, 200 mg liquid): little effect; effect of saliva sample on HT-29 cancer cells (HT-29 colon cancer cells; saliva collected 10-hours post-ingestion, 14-hour and 24-hour incubations, 200 mg liquid): cell rounded up, cell shrinkage, and membrane blebbing; reduction of brain P38 MAPK (P38 MAPK): 61%; increase of activity of respiratory chain I (respiratory chain I [7]): 21%; increase of brain ATP [8]: 89.9% and 89.8%
